# Measured values reported in patent publication US20220033397A1, “PHARMACEUTICAL COMPOUNDS AND THEIR USE AS INHIBITORS OF UBIQUITIN SPECIFIC PROTEASE 19 (USP19)” (ALMAC DISCOVERY LIMITED, priority 2018, published 2022).
# pIC50: −log10 of the molar value.
# Biological target: T1, Full-length USP19 (Homo sapiens, UniProt O94966)
# T1 construct: Full-length USP19 was purchased from Boston Biochem (E-576); purchased Boston Biochem E-576
# T1 sequence (O94966 1-1318): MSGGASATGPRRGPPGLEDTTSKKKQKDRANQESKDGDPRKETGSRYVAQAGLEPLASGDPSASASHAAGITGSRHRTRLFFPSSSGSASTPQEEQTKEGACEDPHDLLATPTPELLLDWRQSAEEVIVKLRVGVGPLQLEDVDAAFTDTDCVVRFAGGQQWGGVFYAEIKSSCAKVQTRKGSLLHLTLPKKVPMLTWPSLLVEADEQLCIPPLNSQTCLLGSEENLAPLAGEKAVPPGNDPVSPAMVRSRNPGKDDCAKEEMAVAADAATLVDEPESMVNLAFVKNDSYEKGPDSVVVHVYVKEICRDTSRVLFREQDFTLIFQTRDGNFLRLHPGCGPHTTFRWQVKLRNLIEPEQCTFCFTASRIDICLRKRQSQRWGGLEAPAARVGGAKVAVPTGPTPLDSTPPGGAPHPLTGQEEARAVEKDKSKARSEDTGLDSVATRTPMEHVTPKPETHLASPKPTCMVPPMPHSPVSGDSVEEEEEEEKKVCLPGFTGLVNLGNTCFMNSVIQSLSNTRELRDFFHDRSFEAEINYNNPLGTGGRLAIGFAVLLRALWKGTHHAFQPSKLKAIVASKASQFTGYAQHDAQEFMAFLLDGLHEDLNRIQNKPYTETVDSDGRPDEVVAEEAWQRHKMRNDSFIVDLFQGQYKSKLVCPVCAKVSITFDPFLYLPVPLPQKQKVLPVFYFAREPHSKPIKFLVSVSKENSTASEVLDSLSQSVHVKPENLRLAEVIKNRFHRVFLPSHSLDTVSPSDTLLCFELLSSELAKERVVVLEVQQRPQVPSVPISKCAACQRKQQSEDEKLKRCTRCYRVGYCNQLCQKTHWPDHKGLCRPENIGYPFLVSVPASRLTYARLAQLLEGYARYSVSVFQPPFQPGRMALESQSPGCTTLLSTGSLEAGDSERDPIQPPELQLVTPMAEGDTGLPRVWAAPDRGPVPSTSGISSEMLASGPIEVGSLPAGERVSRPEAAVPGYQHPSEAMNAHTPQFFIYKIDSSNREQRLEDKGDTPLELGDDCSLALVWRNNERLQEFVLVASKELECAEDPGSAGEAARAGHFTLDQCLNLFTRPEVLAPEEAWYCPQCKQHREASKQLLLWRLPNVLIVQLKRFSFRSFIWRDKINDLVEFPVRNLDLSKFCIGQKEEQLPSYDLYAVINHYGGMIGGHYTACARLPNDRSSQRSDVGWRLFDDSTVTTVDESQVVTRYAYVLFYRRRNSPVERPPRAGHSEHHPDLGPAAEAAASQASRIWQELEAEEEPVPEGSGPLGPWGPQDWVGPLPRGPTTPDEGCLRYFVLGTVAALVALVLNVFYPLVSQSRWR
# Assay: USP19 fluorescence polarisation (FP) homogeneous assay with Ubiquitin-Lys-TAMRA substrate
# Assay type: biochemical
# Conditions: 2.5 nM USP19, 30 min pre-incubation, average of at least two duplicate experiments
# In short: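 Full-length USP19 preincubated 30 min at RT with inhibitor (200 μM to 2 μM series, 8–18 points) before adding 500 nM Ubiquitin-Lys-TAMRA substrate.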
row,pIC50,SMILES
1,5.30 to 6.30,"CC1(C)CCC(N2CCN(CC3(O)CCN(C(=O)NCc4ccccc4)CC34CCCC4)C(=O)C2)CC1 (stereo not shown) [Example 115, N-Benzyl-10-((4-(4,4-dimethylcyclohexyl)-2-oxopiperazin-1-yl)methyl)-10-hydroxy-7-azaspiro[4.5]decane-7-carboxamide]"
2,5.30 to 6.30,"O=C1Cn2ccnc2CN1CC1(O)CCN(C(=O)N2CCNC[C@H]2c2ccccc2)CC12CCCC2 (stereo partly drawn) [Example 119, 7-((10-Hydroxy-7-((R)-2-phenylpiperazine-1-carbonyl)-7-azaspiro[4.5]decan-10-yl)methyl)-7,8-dihydroimidazo[1,2-a]pyrazin-6(5H)-one]"
3,3.60 to 4.30,"COc1ccc2ccn(CC3(O)CCN(C(=O)[C@H](C)CC(F)(F)F)CC34CCCC4)c(=O)c2c1 (stereo partly drawn) [Example 122, 2-((10-Hydroxy-7-((R)-4,4,4-trifluoro-2-methylbutanoyl)-7-azaspiro[4.5]decan-10-yl)methyl)-7-methoxyisoquinolin-1(2H)-one]"
4,> 6.30,"CCn1ncc2c(=O)n(CC3(O)CCN(C(=O)[C@H](C)CC4CCCCC4)CC34CCCC4)cnc21 (stereo partly drawn) [Example 124, 5-((7-((R)-3-Cyclohexyl-2-methylpropanoyl)-10-hydroxy-7-azaspiro[4.5]decan-10-yl)methyl)-1-ethyl-1,5-dihydro-4H-pyrazolo[3,4-d]pyrimidin-4-one]"
5,5.30 to 6.30,"Cc1cccc2c(=O)n(CC3(O)CCN(C(=O)[C@H](C)CC4CCCCC4)CC34CCCC4)cnc12 (stereo partly drawn) [Example 125, 3-((7-((R)-3-Cyclohexyl-2-methylpropanoyl)-10-hydroxy-7-azaspiro[4.5]decan-10-yl)methyl)-8-methylquinazolin-4(3H)-one]"
6,4.30 to 5.30,"C[C@H](CC(F)(F)F)C(=O)N1CCC(O)(Cn2ccc3cc(C(F)(F)F)ccc3c2=O)C2(CCCC2)C1 (stereo partly drawn) [Example 126, 2-((10-Hydroxy-7-((R)-4,4,4-trifluoro-2-methylbutanoyl)-7-azaspiro[4.5]decan-10-yl)methyl)-6-(trifluoromethyl)isoquinolin-1(2H)-one]"
7,5.30 to 6.30,"C[C@H](CC1CCCCC1)C(=O)N1CCC(O)(Cn2cnc3ccccc3c2=O)C2(CCCC2)C1 (stereo partly drawn) [Example 128, 3-((7-((R)-3-Cyclohexyl-2-methylpropanoyl)-10-hydroxy-7-azaspiro[4.5]decan-10-yl)methyl)quinazolin-4(3H)-one]"
8,3.60 to 4.30,"C[C@H](CC(F)(F)F)C(=O)N1CCC(O)(Cn2cc(C(=O)N(C)C)c3ccccc3c2=O)C2(CCCC2)C1 (stereo partly drawn) [Example 130, 2-((10-Hydroxy-7-((R)-4,4,4-trifluoro-2-methylbutanoyl)-7-azaspiro[4.5]decan-10-yl)methyl)-N,N-dimethyl-1-oxo-1,2-dihydroisoquinoline-4-carboxamide]"
9,4.30 to 5.30,"C[C@H](CC(F)(F)F)C(=O)N1CCC(O)(Cn2cnc3cc(Cl)ccc3c2=O)C2(CCCC2)C1 (stereo partly drawn) [Example 134, 7-Chloro-3-((10-hydroxy-7-((R)-4,4,4-trifluoro-2-methylbutanoyl)-7-azaspiro[4.5]decan-10-yl)methyl)quinazolin-4(3H)-one]"
10,4.30 to 5.30,"C[C@H](CC(F)(F)F)C(=O)N1CCC(O)(Cn2ccc3ccncc3c2=O)C2(CCCC2)C1 (stereo partly drawn) [Example 136, 2-((10-Hydroxy-7-((R)-4,4,4-trifluoro-2-methylbutanoyl)-7-azaspiro[4.5]decan-10-yl)methyl)-2,7-naphthyridin-1(2H)-one]"

# The remaining lines, values behind:
row,SMILES,pIC50
1,"CC(=O)N1CCN(CC2(O)CCN(C(=O)[C@H](C)CC(F)(F)F)CC23CCCC3)C(=O)C1 (stereo partly drawn) [Example 112, 4-Acetyl-1-((10-hydroxy-7-((R)-4,4,4-trifluoro-2-methylbutanoyl)-7-azaspiro[4.5]decan-10-yl)methyl)piperazin-2-one]",4.30 to 5.30
2,"C[C@H](CC(F)(F)F)C(=O)N1CCC(O)(CN2CCN(c3ccccn3)CC2=O)C2(CCCC2)C1 (stereo partly drawn) [Example 113, 1-((10-Hydroxy-7-((R)-4,4,4-trifluoro-2-methylbutanoyl)-7-azaspiro[4.5]decan-10-yl)methyl)-4-(pyridin-2-yl)piperazin-2-one]",> 6.30
3,"C[C@H](CC1CCCCC1)C(=O)N1CCC(O)(CN2CCN(C)CC2=O)C2(CCCC2)C1 (stereo partly drawn) [Example 114, 1-((7-((R)-3-Cyclohexyl-2-methylpropanoyl)-10-hydroxy-7-azaspiro[4.5]decan-10-yl)methyl)-4-methylpiperazin-2-one]",5.30 to 6.30
4,"C[C@H](CC(F)(F)F)C(=O)N1CCC(O)(CN2CCN(C3CCC(C)(C)CC3)CC2=O)C2(CCCC2)C1 (stereo partly drawn) [Example 116, 4-(4,4-Dimethylcyclohexyl)-1-((10-hydroxy-7-((R)-4,4,4-trifluoro-2-methylbutanoyl)-7-azaspiro[4.5]decan-10-yl)methyl)Piperazin-2-one]",4.30 to 5.30
5,"O=C1COCCN1CC1(O)CCN(C(=O)N2CCOC[C@H]2c2ccccc2)CC12CCCC2 (stereo partly drawn) [Example 117, 4-((10-Hydroxy-7-((R)-3-phenylmorpholine-4-carbonyl)-7-azaspiro[4.5]decan-10-yl)methyl)morpholin-3-one]",4.30 to 5.30
6,"O=C1COCCN1CC1(O)CCN(C(=O)N2CCNC[C@H]2c2ccccc2)CC12CCCC2 (stereo partly drawn) [Example 118, 4-((10-Hydroxy-7-((R)-2-phenylpiperazine-1-carbonyl)-7-azaspiro[4.5]decan-10-yl)methyl)morpholin-3-one]",5.30 to 6.30
7,"Cc1nc2ccccc2c(=O)n1CC1(O)CCN(C(=O)[C@H](C)CC2CCCCC2)CC12CCCC2 (stereo partly drawn) [Example 120, 3-((7-((R)-3-Cyclohexyl-2-methylpropanoyl)-10-hydroxy-7-azaspiro[4.5]decan-10-yl)methyl)-2-methylquinazolin-4(3H)-one]",5.30 to 6.30
8,"C[C@H](CC1CCCCC1)C(=O)N1CCC(O)(Cn2ccc3ccc(F)cc3c2=O)C2(CCCC2)C1 (stereo partly drawn) [Example 121, 2-((7-((R)-3-Cyclohexyl-2-methylpropanoyl)-10-hydroxy-7-azaspiro[4.5]decan-10-yl)methyl)-7-fluoroisoquinolin-1(2H)-one]",5.30 to 6.30
9,"C[C@H](CC(F)(F)F)C(=O)N1CCC(O)(Cn2cnc3sccc3c2=O)C2(CCCC2)C1 (stereo partly drawn) [Example 123, 3-((10-Hydroxy-7-((R)-4,4,4-trifluoro-2-methylbutanoyl)-7-azaspiro[4.5]decan-10-yl)methyl)thieno[2,3-d]pyrimidin-4(3H)-one]",3.60 to 4.30
10,"COc1ccc2ccn(CC3(O)CCN(C(=O)[C@H](C)CC4CCCCC4)CC34CCCC4)c(=O)c2c1 (stereo partly drawn) [Example 127, 2-((7-((R)-3-Cyclohexyl-2-methylpropanoyl)-10-hydroxy-7-azaspiro[4.5]decan-10-yl)methyl)-7-methoxyisoquinolin-1(2H)-one]",5.30 to 6.30
11,"C[C@H](CC1CCCCC1)C(=O)N1CCC(O)(Cn2cnc3cc(Cl)ccc3c2=O)C2(CCCC2)C1 (stereo partly drawn) [Example 129, 7-Chloro-3-((7-((R)-3-cyclohexyl-2-methylpropanoyl)-10-hydroxy-7-azaspiro[4.5]decan-10-yl)methyl)quinazolin-4(3H)-one]",5.30 to 6.30
12,"C[C@H](CC1CCCCC1)C(=O)N1CCC(O)(Cn2cnc3c(F)cccc3c2=O)C2(CCCC2)C1 (stereo partly drawn) [Example 131, 3-((7-((R)-3-Cyclohexyl-2-methylpropanoyl)-10-hydroxy-7-azaspiro[4.5]decan-10-yl)methyl)-8-fluoroquinazolin-4(3H)-one]",5.30 to 6.30
13,"C[C@H](CC1CCCCC1)C(=O)N1CCC(O)(Cn2cnc3sccc3c2=O)C2(CCCC2)C1 (stereo partly drawn) [Example 132, 3-((7-((R)-3-Cyclohexyl-2-methylpropanoyl)-10-hydroxy-7-azaspiro[4.5]decan-10-yl)methyl)thieno[2,3-d]pyrimidin-4(3H)-one]",5.30 to 6.30
14,"COc1ccc2c(=O)n(CC3(O)CCN(C(=O)[C@H](C)CC(F)(F)F)CC34CCCC4)cnc2c1 (stereo partly drawn) [Example 133, 3-((10-Hydroxy-7-((R)-4,4,4-trifluoro-2-methylbutanoyl)-7-azaspiro[4.5]decan-10-yl)methyl)-7-methoxyquinazolin-4(3H)-one]",4.30 to 5.30
15,"C[C@H](CC(F)(F)F)C(=O)N1CCC(O)(Cn2ccc3ccc(F)cc3c2=O)C2(CCCC2)C1 (stereo partly drawn) [Example 135, 7-Fluoro-2-((10-hydroxy-7-((R)-4,4,4-trifluroo-2-methylbutanoyl)-7-azaspiro[4.5]decan-10-yl)methyl)isoquinolin-1(2H)-one]",4.30 to 5.30
